Measurements as given in ChEMBL document CHEMBL4627274, “Optimized plant compound with potent anti-biofilm activity across gram-negative species” (Bioorg Med Chem, 2020).
The source made the active and inactive calls. The rule behind the calls is not given here.

What was measured:
Pseudomonas aeruginosa [1] = experiment: Downregulation of pilX gene expression in Pseudomonas aeruginosa by lacZ reporter gene based beta-galactosidase assay; assay type: functional, organism-based
Escherichia coli [2] = experiment: Inhibition of swarming motility of Escherichia coli PY31 at 16 ug/mL incubated for 16 to 20 hrs relative to control; assay type: functional
[3] = tested on: Pectobacterium atrosepticum; experiment: Inhibition of swarming motility of Pectobacterium atrosepticum incubated for 16 to 20 hrs; assay type: functional
Pseudomonas aeruginosa [4] = experiment: Down regulation of pilA expression in swarm plate cultured Pseudomonas aeruginosa PAO1 incubated for 19 to 24 hrs by Western blot analysis; assay type: functional, organism-based
Xanthomonas campestris = experiment: Inhibition of swarming motility of Xanthomonas campestris incubated for 16 to 20 hrs; assay type: functional
Salmonella enterica = experiment: Inhibition of swarming motility of Salmonella enterica clinical isolates incubated for 16 to 20 hrs; assay type: functional
Pseudomonas aeruginosa [5] = experiment: Inhibition of swarming motility of Pseudomonas aeruginosa HONKR at 16 ug/mL incubated for 16 to 20 hrs relative to control; assay type: functional
Escherichia coli [6] = experiment: Antibiofilm activity against Escherichia coli UTI89 incubated for 2 days at 23 degC followed by 1 day incubation at RT; assay type: functional
Pseudomonas syringae = experiment: Inhibition of swarming motility of Pseudomonas syringae incubated for 16 to 20 hrs; assay type: functional
M14 = experiment: Cytotoxicity against human M14 cells assessed as reduction in cell viability at < 10 uM; assay type: cell-based
Pseudomonas aeruginosa [7] = experiment: Inhibition of swarming motility of Pseudomonas aeruginosa clinical isolates incubated for 16 to 20 hrs; assay type: functional
Burkholderia cepacia = experiment: Inhibition of swarming motility of Burkholderia cepacia clinical isolates incubated for 16 to 20 hrs; assay type: functional
Pseudomonas aeruginosa [8] = experiment: Potentiation of colistin-induced inhibition of swarming motility in Pseudomonas aeruginosa HONKR assessed as reduction in biofilm formation at 0.125 ug/mL; assay type: functional, organism-based
Escherichia coli [9] = experiment: Inhibition of swarming motility of Escherichia coli clinical isolates incubated for 16 to 20 hrs; assay type: functional
Pseudomonas aeruginosa [10] = experiment: Potentiation of tobramycin-induced inhibition of swarming motility in Pseudomonas aeruginosa HONKR assessed as reduction in biofilm formation at 0.125 ug/mL; assay type: functional, organism-based
Pseudomonas aeruginosa [11] = experiment: Down regulation of pilY1 expression in swarm plate cultured Pseudomonas aeruginosa PAO1 incubated for 19 to 24 hrs by Western blot analysis; assay type: functional, organism-based
Pseudomonas aeruginosa [12] = experiment: Inhibition of swarming motility of Pseudomonas aeruginosa HONKR at 10 ug incubated for 18 to 24 hrs; assay type: functional, organism-based

| Compound | Activity (Pseudomonas aeruginosa [1]) | inhibition at 16 µg/mL (Escherichia coli [2]) | INH [3] | Activity (Pseudomonas aeruginosa [4]) | INH (Xanthomonas campestris) | INH (Salmonella enterica) | inhibition at 16 µg/mL (Pseudomonas aeruginosa [5]) | MBIC50 (Escherichia coli [6]) | INH (Pseudomonas syringae) | Activity (M14) | INH (Pseudomonas aeruginosa [7]) | INH (Burkholderia cepacia) | Activity (Pseudomonas aeruginosa [8]) | INH (Escherichia coli [9]) | Activity (Pseudomonas aeruginosa [10]) | Activity (Pseudomonas aeruginosa [11]) | inhibition (Pseudomonas aeruginosa [12]) |
| --- | --- | --- | --- | --- | --- | --- | --- | --- | --- | --- | --- | --- | --- | --- | --- | --- | --- |
| CC1(C)CC[C@]2(C(=O)O)CC[C@]3(C)C(=CC[C@@H]4[C@@]5(C)Cc6c(n[nH]c6N)C(C)(C)[C@@H]5CC[C@]43C)[C@@H]2C1 | Active | > 90% | <0.5 µg/mL | Dose-dependent effect | <0.5 µg/mL | 1 µg/mL | > 90% | 4 µg/mL | <0.5 µg/mL | Non-Toxic | 1 µg/mL | 0.25 µg/mL | Active | 1 µg/mL | Active | Dose-dependent effect |  |
| NC[C@H]1O[C@H](O[C@H]2[C@H](O)[C@@H](O[C@H]3O[C@H](CO)[C@@H](O)[C@H](N)[C@H]3O)[C@H](N)C[C@@H]2N)[C@H](N)C[C@@H]1O [TOBRAMYCIN] |  |  |  |  |  | 8 µg/mL |  |  |  |  | 4 µg/mL | >64 µg/mL |  | 16 µg/mL |  |  | inactive |
